The test system of the test is BMDC. The format is cell-based, C57BL/6 mice.

As to TNF-α, the “B7-1 % positive cells” value was 85%, the “B7-1 MFI” value is given as “(320)”, the “B7-2 % positive cells” value was determined as 71% and the “B7-2 MFI” value is “(412)”. For the same substance, the “CD11b % positive cells” value is 84%, the “CD11b MFI” value was “(729)”, the “CD11c % positive cells” value came out at 20% and the “CD11c MFI” value was “(149)”. The “CD40 % positive cells” value is recorded as 65%, the “CD40 MFI” value is “(159)”, the “H-2K^b/D^b % positive cells” value worked out at 91% and the “H-2K^b/D^b MFI” value is on record as “(195)”. The “I-A^b % positive cells” value was 95%, the “I-A^b MFI” value was “(1189)”, the “ICAM-1 % positive cells” value is on record as 97% and the “ICAM-1 MFI” value is recorded as “(421)”. Also, the “LFA-3 % positive cells” value was 87% and the “LFA-3 MFI” value is “(249)”.

The values are drawn from patent US6969609B1 (priority 1998, dated 2005).
